Test results reported in US20240246977A1, “DEGRADATION OF BRUTON'S TYROSINE KINASE (BTK) BY CONJUGATION OF BTK INHIBITORS WITH E3 LIGASE LIGAND AND METHOD OF USE” (BeiGene Switzerland GmbH, priority 2021, published 2024).

Tests used:
HEK-293 cells = assay: HEK-293 cytotoxicity detection (CellTiter-Glo); assay type: cell-based; conditions: Homo sapiens, 72 h, 72 h incubation, CellTiter-Glo luminescence, read-out: HEK293
Method in brief: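 HEK-293 cells exposed 72 h to 8 compounds doses (4-fold dilutions, top stock 5 mM at 500×) in 0.2% DMSO. Viability by CellTiter-Glo luminescence; inhibition normalised to DMSO high control and low control, IC50 from four-parameter curve fit.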

BTK = BTK (Homo sapiens, UniProt Q06187); assay: BTK cell degradation in TMD-8 cells, HTRF assay; assay type: cell-based; set-up: endogenous in cells; host or cells: TMD-8 cells; conditions: 6 h treatment, IC50 (DC50) of BTK degradation
BTK, sequence (Q06187 whole entry): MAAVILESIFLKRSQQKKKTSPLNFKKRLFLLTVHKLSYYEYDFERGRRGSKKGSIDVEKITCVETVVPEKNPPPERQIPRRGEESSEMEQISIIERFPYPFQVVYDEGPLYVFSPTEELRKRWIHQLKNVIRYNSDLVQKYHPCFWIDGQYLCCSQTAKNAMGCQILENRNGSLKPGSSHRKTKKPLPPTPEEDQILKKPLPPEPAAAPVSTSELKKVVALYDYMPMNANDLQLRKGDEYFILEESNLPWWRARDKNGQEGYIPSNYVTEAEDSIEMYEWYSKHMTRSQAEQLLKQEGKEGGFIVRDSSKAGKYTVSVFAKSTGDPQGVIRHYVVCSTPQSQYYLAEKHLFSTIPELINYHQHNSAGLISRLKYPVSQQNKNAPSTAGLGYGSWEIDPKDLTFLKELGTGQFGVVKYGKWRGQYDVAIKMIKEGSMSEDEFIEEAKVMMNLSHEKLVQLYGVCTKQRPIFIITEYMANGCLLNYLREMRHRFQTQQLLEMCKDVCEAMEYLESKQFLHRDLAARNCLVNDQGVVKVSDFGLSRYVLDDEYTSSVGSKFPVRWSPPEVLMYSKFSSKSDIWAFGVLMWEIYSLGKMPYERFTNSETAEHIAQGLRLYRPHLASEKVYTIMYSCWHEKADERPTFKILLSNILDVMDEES
Method in brief: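 BTK levels read by HTRF in lysates of TMD-8 cells exposed to compounds for 6 h, eight concentrations at 6-fold steps in 0.2% DMSO. Percent degradation versus DMSO and low controls was fitted with a four-parameter equation to give DC50; Dmax is maximal degradation.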

Compound | DC50 (BTK) [nM] | IC50 (HEK-293 cells) [nM]
Cc1cccc(NC(=O)c2ncc(-c3nn4c(c3C#N)Nc3ccc(N5CCN(CC6CCN(c7ccc(N8CCC(=O)NC8=O)cc7)CC6)CC5)cc3CC4)cc2C)n1 [Example B31, 5-(3-cyano-7-(4-((1-(4-(2,4-dioxotetrahydropyrimidin-1(2H)-yl)phenyl)piperidin-4-yl)methyl)piperazin-1-yl)-9,10-dihydro-4H-benzo[d]pyrazolo[1,5-a][1,3]diazepin-2-yl)-3-methyl-N-(6-methylpyridin-2-yl)picolinamide] | > 2000 | 133
Cc1cccc(NC(=O)c2ncc(-c3nn4c(c3C(N)=O)Nc3ccc(N5CCN(CC6CCN(c7ccc(N8CCC(=O)NC8=O)cc7)CC6)CC5)cc3CC4)cc2C)n1 [Example B32, 7-(4-((1-(4-(2,4-dioxotetrahydropyrimidin-1(2H)-yl)phenyl)piperidin-4-yl)methyl)piperazin-1-yl)-2-(5-methyl-6-((6-methylpyridin-2-yl)carbamoyl)pyridin-3-yl)-9,10-dihydro-4H-benzo[d]pyrazolo[1,5-a][1,3]diazepine-3-carboxamide] | 8.86 | 332
Cc1cccc(NC(=O)c2ncc(-c3nn4c(c3C(N)=O)Nc3ccc(N5CCN(CCc6cc(F)c(C7CCC(=O)NC7=O)c(F)c6)CC5)cc3CC4)cc2C)n1 (stereo not shown) [Example B33, 7-(4-(4-(2,6-dioxopiperidin-3-yl)-3,5-difluorophenethyl)piperazin-1-yl)-2-(5-methyl-6-((6-methylpyridin-2-yl)carbamoyl)pyridin-3-yl)-9,10-dihydro-4H-benzo[d]pyrazolo[1,5-a][1,3]diazepine-3-carboxamide] | 17.6 | 400
Cc1cccc(NC(=O)c2ncc(-c3nn4c(c3C(N)=O)Nc3ccc(N5CCN(C6CC(c7ccc([C@H]8CCC(=O)NC8=O)cc7)C6)CC5)cc3CC4)cc2C)n1 (stereo partly drawn) [Example B34, (R)-7-(4-(3-(4-(2,6-dioxopiperidin-3-yl)phenyl)cyclobutyl)piperazin-1-yl)-2-(5-methyl-6-((6-methylpyridin-2-yl)carbamoyl)pyridin-3-yl)-9,10-dihydro-4H-benzo[d]pyrazolo[1,5-a][1,3]diazepine-3-carboxamide] | 57.8 | 168
Cc1cccc(NC(=O)c2cnc(-c3nn4c(c3C(N)=O)Nc3ccc(N5CCN(CC6CCN(c7ccc(N8CCC(=O)NC8=O)cc7)CC6)CC5)cc3CC4)cc2C)n1 [Example B36, 7-(4-((1-(4-(2,4-dioxotetrahydropyrimidin-1(2H)-yl)phenyl)piperidin-4-yl)methyl)piperazin-1-yl)-2-(4-methyl-5-((6-methylpyridin-2-yl)carbamoyl)pyridin-2-yl)-9,10-dihydro-4H-benzo[d]pyrazolo[1,5-a][1,3]diazepine-3-carboxamide] | 47.2 | > 10000
Cc1cccc(NC(=O)c2cnc(-c3nn4c(c3C(N)=O)Nc3ccc(N5CCN(CCc6cc(F)c(C7CCC(=O)NC7=O)c(F)c6)CC5)cc3CC4)cc2C)n1 (stereo not shown) [Example B37, 7-(4-(4-(2,6-dioxopiperidin-3-yl)-3,5-difluorophenethyl)piperazin-1-yl)-2-(4-methyl-5-((6-methylpyridin-2-yl)carbamoyl)pyridin-2-yl)-9,10-dihydro-4H-benzo[d]pyrazolo[1,5-a][1,3]diazepine-3-carboxamide] | 15.2 | > 10000
Cc1cncc(NC(=O)c2ccc(-c3nn4c(c3C(N)=O)Nc3ccc(N5CCN(CC6CCN(c7ccc(N8CCC(=O)NC8=O)cc7)CC6)CC5)cc3CC4)c(F)c2C)n1 [Example B40, 7-(4-((1-(4-(2,4-dioxotetrahydropyrimidin-1(2H)-yl)phenyl)piperidin-4-yl)methyl)piperazin-1-yl)-2-(2-fluoro-3-methyl-4-((6-methylpyrazin-2-yl)carbamoyl)phenyl)-9,10-dihydro-4H-benzo[d]pyrazolo[1,5-a][1,3]diazepine-3-carboxamide] | 5.69 | > 10000
CCc1cccc(NC(=O)c2ccc(-c3nn4c(c3C(N)=O)Nc3ccc(N5CCN(CC6CCN(c7ccc(N8CCC(=O)NC8=O)cc7)CC6)CC5)cc3CC4)c(F)c2C)n1 [Example B41, 7-(4-((1-(4-(2,4-dioxotetrahydropyrimidin-1(2H)-yl)phenyl)piperidin-4-yl)methyl)piperazin-1-yl)-2-(4-((6-ethylpyridin-2-yl)carbamoyl)-2-fluoro-3-methylphenyl)-9,10-dihydro-4H-benzo[d]pyrazolo[1,5-a][1,3]diazepine-3-carboxamide] | 9.26 | > 10000
Cc1c(-c2nc(-c3ccccn3)no2)ccc(-c2nn3c(c2C(N)=O)Nc2ccc(N4CCN(CC5CCN(c6ccc(N7CCC(=O)NC7=O)cc6)CC5)CC4)cc2CC3)c1F [Example B46, 7-(4-((1-(4-(2,4-dioxotetrahydropyrimidin-1(2H)-yl)phenyl)piperidin-4-yl)methyl)piperazin-1-yl)-2-(2-fluoro-3-methyl-4-(3-(pyridin-2-yl)-1,2,4-oxadiazol-5-yl)phenyl)-9,10-dihydro-4H-benzo[d]pyrazolo[1,5-a][1,3]diazepine-3-carboxamide] | 15 | > 10000

Further compounds by falling DC50 (BTK), results first:

DC50 (BTK) [nM] | Compound | IC50 (HEK-293 cells) [nM]
5.66 | Cc1cccc(NC(=O)c2ccc(-c3nn4c(c3C(N)=O)Nc3ccc(N5CCN(CCc6cc(F)c(C7CCC(=O)NC7=O)c(F)c6)CC5)cc3CC4)nc2C)n1 (stereo not shown) [Example B39, 7-(4-(4-(2,6-dioxopiperidin-3-yl)-3,5-difluorophenethyl)piperazin-1-yl)-2-(6-methyl-5-((6-methylpyridin-2-yl)carbamoyl)pyridin-2-yl)-9,10-dihydro-4H-benzo[d]pyrazolo[1,5-a][1,3]diazepine-3-carboxamide] | > 10000
4.89 | Cc1cccc(NC(=O)c2ccc(-c3nn4c(c3C(N)=O)Nc3ccc(N5CCN(CC6CCN(c7ccc(N8CCC(=O)NC8=O)cc7)CC6)CC5)cc3CC4)nc2C)n1 [Example B38, 7-(4-((1-(4-(2,4-dioxotetrahydropyrimidin-1(2H)-yl)phenyl)piperidin-4-yl)methyl)piperazin-1-yl)-2-(6-methyl-5-((6-methylpyridin-2-yl)carbamoyl)pyridin-2-yl)-9,10-dihydro-4H-benzo[d]pyrazolo[1,5-a][1,3]diazepine-3-carboxamide] | > 10000
4.2 | Cc1c(C(=O)Nc2cccc(-c3ccccc3)n2)ccc(-c2nn3c(c2C(N)=O)Nc2ccc(N4CCN(CC5CCN(c6ccc(N7CCC(=O)NC7=O)cc6)CC5)CC4)cc2CC3)c1F [Example B48, 7-(4-((1-(4-(2,4-dioxotetrahydropyrimidin-1(2H)-yl)phenyl)piperidin-4-yl)methyl)piperazin-1-yl)-2-(2-fluoro-3-methyl-4-((6-phenylpyridin-2-yl)carbamoyl)phenyl)-9,10-dihydro-4H-benzo[d]pyrazolo[1,5-a][1,3]diazepine-3-carboxamide] | > 10000
3.67 | Cc1cc(Cl)cc(NC(=O)c2ccc(-c3nn4c(c3C(N)=O)Nc3ccc(N5CCN(CC6CCN(c7ccc(N8CCC(=O)NC8=O)cc7)CC6)CC5)cc3CC4)c(F)c2C)n1 [Example B42, 2-(4-((4-chloro-6-methylpyridin-2-yl)carbamoyl)-2-fluoro-3-methylphenyl)-7-(4-((1-(4-(2,4-dioxotetrahydropyrimidin-1(2H)-yl)phenyl)piperidin-4-yl)methyl)piperazin-1-yl)-9,10-dihydro-4H-benzo[d]pyrazolo[1,5-a][1,3]diazepine-3-carboxamide] | > 10000
2.53 | Cc1cccc(NC(=O)c2cc(F)c(-c3nn4c(c3C(N)=O)Nc3ccc(N5CCN(CC6CCN(c7ccc(N8CCC(=O)NC8=O)cc7)CC6)CC5)cc3CC4)cc2C)n1 [Example B30, 7-(4-((1-(4-(2,4-dioxotetrahydropyrimidin-1(2H)-yl)phenyl)piperidin-4-yl)methyl)piperazin-1-yl)-2-(2-fluoro-5-methyl-4-((6-methylpyridin-2-yl)carbamoyl)phenyl)-9,10-dihydro-4H-benzo[d]pyrazolo[1,5-a][1,3]diazepine-3-carboxamide] | > 10000
1.9 | Cc1c(C(=O)Nc2cnc3ccccc3n2)ccc(-c2nn3c(c2C(N)=O)Nc2ccc(N4CCN(CC5CCN(c6ccc(N7CCC(=O)NC7=O)cc6)CC5)CC4)cc2CC3)c1F [Example B47, 7-(4-((1-(4-(2,4-dioxotetrahydropyrimidin-1(2H)-yl)phenyl)piperidin-4-yl)methyl)piperazin-1-yl)-2-(2-fluoro-3-methyl-4-(quinoxalin-2-ylcarbamoyl)phenyl)-9,10-dihydro-4H-benzo[d]pyrazolo[1,5-a][1,3]diazepine-3-carboxamide] | > 10000
1.69 | Cc1c(C(=O)Nc2ccc3[nH]ccc3n2)ccc(-c2nn3c(c2C(N)=O)Nc2ccc(N4CCN(CC5CCN(c6ccc(N7CCC(=O)NC7=O)cc6)CC5)CC4)cc2CC3)c1F [Example B45, 2-(4-((1H-pyrrolo[3,2-b]pyridin-5-yl)carbamoyl)-2-fluoro-3-methylphenyl)-7-(4-((1-(4-(2,4-dioxotetrahydropyrimidin-1(2H)-yl)phenyl)piperidin-4-yl)methyl)piperazin-1-yl)-9,10-dihydro-4H-benzo[d]pyrazolo[1,5-a][1,3]diazepine-3-carboxamide] | > 10000
0.543 | Cc1ccnc(NC(=O)c2ccc(-c3nn4c(c3C(N)=O)Nc3ccc(N5CCN(CC6CCN(c7ccc(N8CCC(=O)NC8=O)cc7)CC6)CC5)cc3CC4)c(F)c2C)n1 [Example B43, 7-(4-((1-(4-(2,4-dioxotetrahydropyrimidin-1(2H)-yl)phenyl)piperidin-4-yl)methyl)piperazin-1-yl)-2-(2-fluoro-3-methyl-4-((4-methylpyrimidin-2-yl)carbamoyl)phenyl)-9,10-dihydro-4H-benzo[d]pyrazolo[1,5-a][1,3]diazepine-3-carboxamide] | > 10000
